Test results taken from US7759346B2, “[[2-(amino-3,4-dioxo-1-cyclobuten-1-yl)amino]alkyl]-acid derivatives for the treatment of pain” (priority 2001, dated 2010).
Where two headings read alike, the source gives them in different places.

What was measured:
Spraque-Dawley rats [1] = assay: Prostaglandin E2-induced thermal hypersensitivity, warm-water tail withdrawal, single compound studies; format: in vivo, rat; conditions: for % MPE (reversal of PGE2-induced thermal hypersensitivity): given 30 min before PGE2
Procedure: Ketamine and dizocilpine are high affinity use-dependent NMDA receptor channel blockers, while memantine is a moderate affinity use-dependent NMDA receptor channel blocker. CGS-19755 is a competitive NMDA antagonist and ifenprodil is a […] polyamine antagonist. Test Method 1: Prostaglandin E2-Induced Thermal Hypersensitivity.
(§1) The terminal 10 cm of the tail was placed into a thermos bottle containing water warmed to 38, 42, 46, 50, 54, or 58° C. The latency in seconds for the animal to remove the tail from the water was used as a measure of nociception.
(§2) Following the assessment of baseline thermal sensitivity, thermal hypersensitivity was produced by a 50 μL injection of 0.1 mg prostaglandin E2 (PGE2) into the terminal 1 cm of the tail. Temperature-effect curves were generated before (baseline) and after (15, 30, 60, 90 and 120 min) the PGE2 injection.
Single compound studies. The ability of drugs to reverse PGE2-induced thermal hypersensitivity was assessed using a single dose time-course procedure. Under this procedure, a single dose of the compound to be tested was administered intraperitoneally (IP), orally (PO) or intranasally (IN) 30 min before the injection of PGE2. […] sensitivity was assessed 30 min after PGE2 injection.
(§3) Test Method 1 Data Analysis—The temperature that produced a half-maximal increase in the tail-withdrawal latency (i.e., T10) was calculated from each temperature-effect curve. The T10 was determined by interpolation from a line drawn between the point above and the point below 10 sec on the temperature-effect curve. For these studies, thermal hypersensitivity was defined as a leftward shift in the temperature-effect curve and a decrease in the T10 value. Reversal of thermal hypersensitivity was defined as a return to baseline of the temperature-effect curve and the T10 value and was calculated according to the following equation:
[formula] in which T10^drug+PGE2 is the T10 after a drug in combination with PGE2, T10^PGE2 is the T10 after PGE2 alone, and T10^baseline is the T10 under control conditions. A % MPE value of 100 indicates a complete return to the baseline thermal sensitivity observed without the PGE2 injection. […] Test Method 2: Chronic Constriction Injury

Spraque-Dawley rats [2] = assay: Chronic Constriction Injury-induced tactile hypersensitivity (von Frey); format: in vivo, rat; conditions: for % Reversal of CCl-induced tactile hypersensitivity: IP, one week after CCl surgery; for reversal of CCl-induced tactile hypersensitivity (in words): up to doses that produced observable signs of sedation and ataxia
Source text: Rats were anesthetized with 3.5% halothane in O2 at 1 L/min and maintained with 1.5% halothane in O2 during surgery. A modified chronic sciatic nerve constriction injury (Mosconi & Kruger, 1996; Bennett & Xie, 1988) was produced by a cutaneous incision and a blunt dissection through the biceps femoris to expose the sciatic nerve. A PE 90 Polyethylene tubing (Intramedic, Clay Adams; Becton Dickinson Co.) cuff (2 mm length) was placed around the sciatic nerve at the level of the mid-thigh. The wound was closed in layers using 4-0 silk suture and wound clips. Testing was conducted 6-10 days after surgery.
Animals were placed in elevated wire cages and allowed 45-60 minutes to acclimate to the testing room. Baseline tactile sensitivity was assessed using a series of calibrated von Frey monofilaments (Stoelting; Wood Dale, Ill.) 0-3 days before surgery. Von Frey monofilaments were applied to the mid-plantar hind paw in sequential ascending or descending order, as necessary, to hover as closely as possible to the threshold of responses. The threshold was indicated by the lowest force that evoked a brisk withdrawal response to the stimuli. Thus, a withdrawal response led to the presentation of the next lighter stimulus and the lack of a withdrawal response led to the presentation of the next stronger stimulus. Rats with baseline thresholds <10 g force were excluded from the study. […] Under cumulative dosing conditions, compounds were administered IP every 30 minutes with the cumulative dose increasing in ½ log unit increments. Tactile hypersensitivity was assessed 20-30 minutes following each drug administration.
Test Method 2 Data Analysis—The 50% threshold values (in gm force) estimated by the Dixon non-parametric test (Chaplan et al, 1994) was calculated and fifteen-grams of force was used as the maximal force. Dose-effect curves were generated for each experimental condition for each rat. Individual tactile hypersensitivity threshold values were averaged to provide a mean (±1 SEM). Reversal of tactile hypersensitivity was defined as a return to baseline tactile sensitivity and was calculated according to the following equation:
(§4) [formula] in which 50%^drug+CCl is the 50% value after compound in animals approximately one week after CCl surgery, 50%^CCl is the 50% value approximately one week after CCl surgery alone, and 50%^baseline is the 50% value before CCl surgery. Maximal effect of 100% reversal represents a return to the mean pre-operative threshold value for subjects in that experimental condition. Test Method 3: Scheduled-Controlled Responding.

Spraque-Dawley rats [3] = assay: Scheduled-controlled responding (operant responding, food presentation); conditions: for Operant responding: response rate as a percent of control: IP; for rates of responding (in words): schedule of food presentation, Compound A IP or PO at doses that reversed hypersensitivity
Source text: as §4
Rats were trained under a multiple-cycle procedure during experimental sessions conducted five days each week. Each training cycle consisted of a 1-min pretreatment period followed by a 10-min response period. During the pretreatment period, stimulus lights were not illuminated, and responding had no scheduled consequences. During the response period, the left or right stimulus lights were illuminated (counterbalanced among subjects), the response lever was extended and subjects could respond under a fixed ratio 30 schedule of food presentation. Training sessions consisted of 3 consecutive cycles. Testing sessions were identical to training sessions except that a single dose of drug was administered at the start of the first cycle.
Data analysis. Operant response rates from individual animals were averaged for the three cycles during test sessions and were converted to percent of control response rates using the average rate from the previous training day as the control value (i.e., average of three cycles). Data are presented as the mean (±1 SEM) response rate as a percent of control.

monkeys = conditions: cited from earlier work
[4] = tested on: rats trained to discriminate between saline and PCP; conditions: cited from earlier work
Spraque-Dawley rats [5] = assay: Observable signs of sedation and ataxia
Spraque-Dawley rats [6] = assay: Warm-water tail withdrawal combination studies with morphine; format: in vivo, rat; conditions: 30 min before testing
Procedure: as §1
Combination compound studies. […] Compounds were administered IP at the same time 30 min before testing.
as §3, with “equation: […]” for “equation:”

Spraque-Dawley rats [7] = format: in vivo, rat
Procedure: as §1, §2
Compounds were administered IP at the same time as PGE2, which was administered 30 min before testing.
as §3, with “equation: […]” for “equation:”

[8] = tested on: cingulate and retrosplenial cortices of mice and rats; conditions: cited from earlier work
[9] = IP, CCl-induced tactile hypersensitivity study
[10] = IP, PGE2-induced thermal hypersensitivity study

With CC12CC3CC(C)(C1)CC(N)(C3)C2 [memantine] as the molecule, how does the “% MPE (reversal of PGE2-induced thermal hypersensitivity)” value (shortened to “% MPE”) (Spraque-Dawley rats [1]; IP, 3 mg/kg) read?
Its value is 13%.

And the “% MPE” value (Spraque-Dawley rats [1]; IP, 10 mg/kg)?
The value was 15%.

What about the “% MPE” value (Spraque-Dawley rats [1]; PO, 10 mg/kg) of the same molecule?
Its value is −1%.

What about the “% MPE” value (Spraque-Dawley rats [1]; PO, 30 mg/kg) of the same molecule?
Its value is 11%.

What about the “% MPE” value (Spraque-Dawley rats [1]; PO, 100 mg/kg) of the same molecule?
Its value is 5%.

And the “% Reversal of CCl-induced tactile hypersensitivity” value (from here on “% Reversal”) (Spraque-Dawley rats [2]; cumulative dose 3 mg/kg)?
Its value is −25%.

And the “% Reversal” value (Spraque-Dawley rats [2]; cumulative dose 10 mg/kg)?
Its value is −45%.

And the “reversal of CCl-induced tactile hypersensitivity (in words)” value (Spraque-Dawley rats [2])?
Its value is “none of the comparative compounds produced any reversal”.

What about the “Operant responding: response rate as a percent of control” value (Spraque-Dawley rats [3]; 3 mg/kg) of the same molecule?
Its value is 93%.

What about the “Operant responding: response rate as a percent of control” value (Spraque-Dawley rats [3]; 10 mg/kg) of the same molecule?
The value was 2%.

And the “rates of responding (in words)” value (Spraque-Dawley rats [3])?
The value was “dose-dependently decreased rates of responding”.

What about the self-administration (monkeys) of the same molecule?
The self-administration was “maintains self-administration”.

What about the “substitution for the PCP-like discriminative stimulus effects” value (“substitution” for short) [4] of the same molecule?
Its value is “substitute for the PCP-like discriminative stimulus effects”.

What about the “doses that produced observable signs of sedation and ataxia” value (shortened to “doses that produced observable signs”) (Spraque-Dawley rats [5]; [9]) of the same molecule?
Its value is < 10 mg/kg.

What about the “doses that produced observable signs” value (Spraque-Dawley rats [5]; [10]) of the same molecule?
Its value is < 10 mg/kg.

And the “doses that produced observable signs” value (Spraque-Dawley rats [5]; PO, PGE2-induced thermal hypersensitivity study)?
Its value is < 100 mg/kg.

Which “% MPE” value (Spraque-Dawley rats [1]; IP, 10 mg/kg) does the source give for CNC1(c2ccccc2Cl)CCCCC1=O (centres unmarked) [ketamine] here?
Its value is 14%.

What about the “% MPE” value (Spraque-Dawley rats [1]; IP, 18 mg/kg) of the same molecule?
Its value is 9%.

What about the “Change from Baseline (T10)” value (Spraque-Dawley rats [6]; 18.0 mg/kg IP) of the same molecule?
Its value is −0.3.

What about the “Change from Baseline (T10)” value (Spraque-Dawley rats [7]; 18.0 mg/kg IP with PGE2, PGE2 + vehicle −5.6) of the same molecule?
The value was −5.5.

What about the “substitution” value [4] of the same molecule?
The value was “substitute for the PCP-like discriminative stimulus effects”.

Which “Change from Baseline (T10)” value (Spraque-Dawley rats [6]; morphine 5.6 mg/kg IP) does the source give for CN1CC[C@]23c4c5ccc(O)c4O[C@H]2[C@@H](O)C=C[C@H]3[C@H]1C5 [Morphine, morphine] here?
The value was “+2.3”.

And the “Change from Baseline (T10)” value (Spraque-Dawley rats [7]; rat, in vivo)?
Its value is “+0.3”.

With C[C@]12N[C@H](Cc3ccccc31)c1ccccc12 [dizocilpine] as the molecule, how does the “% MPE” value (Spraque-Dawley rats [1]; IP, 0.3 mg/kg) read?
The value was 18%.

And the “Operant responding: response rate as a percent of control” value (Spraque-Dawley rats [3]; 0.1 mg/kg)?
The value was 63%.

What about the “Operant responding: response rate as a percent of control” value (Spraque-Dawley rats [3]; 0.3 mg/kg) of the same molecule?
The value was 16%.

What about the “rates of responding (in words)” value (Spraque-Dawley rats [3]) of the same molecule?
The value was “dose-dependently decreased rates of responding”.

And the “substitution” value [4]?
The value was “substitute for the PCP-like discriminative stimulus effects”.

What about the “doses that produced observable signs” value (Spraque-Dawley rats [5]; [10]) of the same molecule?
Its value is < 0.3 mg/kg.

With O=C(O)[C@H]1C[C@@H](CP(=O)(O)O)CCN1 (relative stereo) [CGS-19755, cis-4-phosphonomethyl-2-piperidine carboxylic acid] as the molecule, how does the “% MPE” value (Spraque-Dawley rats [1]; IP, 3 mg/kg) read?
The value was 9%.

And the “% MPE” value (Spraque-Dawley rats [1]; IP, 10 mg/kg)?
The value was 25%.

What about the “% MPE” value (Spraque-Dawley rats [1]; IP, 30 mg/kg) of the same molecule?
Its value is 9%.

And the “% Reversal” value (Spraque-Dawley rats [2]; cumulative dose 3 mg/kg)?
The value was −9%.

What about the “% Reversal” value (Spraque-Dawley rats [2]; cumulative dose 10 mg/kg) of the same molecule?
Its value is −5%.

And the “% Reversal” value (Spraque-Dawley rats [2]; cumulative dose 30 mg/kg)?
Its value is −17%.

And the “reversal of CCl-induced tactile hypersensitivity (in words)” value (Spraque-Dawley rats [2])?
Its value is “none of the comparative compounds produced any reversal”.

And the “vacuolization (in words)” value ([8]; cingulate and retrosplenial cortices of mice and rats)?
Its value is “caused vacuolization at behaviorally effective doses”.

What about the effectiveness/vacuolization ratio ([8]; mice and rats, behaviorly effective doses) of the same molecule?
Its effectiveness/vacuolization ratio is 1.

And the “doses that produced observable signs” value (Spraque-Dawley rats [5]; [9])?
Its value is < 30 mg/kg.

Which “% MPE” value (Spraque-Dawley rats [1]; PO, 3 mg/kg) does the source give for O=c1c2c(c1=O)N(Cc1nnn[nH]1)CCCN2 [Compound B, 2-[(1H-Tetrazol-5-yl)methyl]-2,6-diazabicyclo[5.2.0]-non-1-(7)-ene-8,9-dione] here?
The value was 16%.

And the “% MPE” value (Spraque-Dawley rats [1]; PO, 10 mg/kg)?
Its value is 92%.

What about the “% MPE” value (Spraque-Dawley rats [1]; PO, 30 mg/kg) of the same molecule?
The value was 101%.

And the “reversal of PGE2-induced thermal hypersensitivity (in words)” value (Spraque-Dawley rats [1]; rat, in vivo)?
Its value is “full reversal”.

What about the “% Reversal” value (Spraque-Dawley rats [2]; cumulative dose 1 mg/kg) of the same molecule?
Its value is 13%.

And the “% Reversal” value (Spraque-Dawley rats [2]; cumulative dose 3 mg/kg)?
The value was 14%.

And the “% Reversal” value (Spraque-Dawley rats [2]; cumulative dose 10 mg/kg, 10 mg/kg)?
The value was 40%.

And the “% Reversal” value (Spraque-Dawley rats [2]; cumulative dose 30 mg/kg)?
Its value is 12%.

What about the sedation or ataxia (Spraque-Dawley rats [5]; doses used in the CCl-induced tactile hypersensitivity study, IP) of the same molecule?
Its sedation or ataxia is “not associated with sedation or ataxia”.

With CC(C(O)c1ccc(O)cc1)N1CCC(Cc2ccccc2)CC1 (centres unmarked) [ifenfrodil, ifenprodil] as the molecule, how does the “% MPE” value (Spraque-Dawley rats [1]; IP, 10 mg/kg) read?
The value was 1%.

What about the “% MPE” value (Spraque-Dawley rats [1]; IP, 30 mg/kg) of the same molecule?
Its value is 14%.
